From patent US7662814B2, “4-aminothieno[2,3-d]pyrimidine-6-carbonitrile derivatives as PDE7 inhibitors” (Laboratorios Almirall, S.A., priority 2003, dated 2010)

Row | melting point | Structure (SMILES)
1 | 126 to 128 °C | C=CCN(C)c1nc(-c2ccc(OC)cc2)nc2sc(C#N)c(C)c12 [Example 29, 4-[Allyl(methyl)amino]-2-(4-methoxyphenyl)-5-methylthieno[2,3-d]pyrimidine-6-carbonitrile]
2 | 133 to 135 °C | CCN(C)c1nc(-c2ccc(OC)c(OC)c2)nc2sc(C#N)c(C)c12 [Example 26, 2-(3,4-Dimethoxyphenyl)-4-[ethyl(methyl)amino]-5-methylthieno[2,3-d]pyrimidine-6-carbonitrile]
3 | 164 to 166 °C | COc1cc(-c2nc(N(C)CCO)c3c(C)c(C#N)sc3n2)cc(OC)c1OC [Example 52, 4-[(2-Hydroxy-ethyl)-methyl-amino]-5-methyl-2-(3,4,5-trimethoxy-phenyl)-thieno[2,3-d]pyrimidine-6-carbonitrile]
4 | 236 to 240 °C | COc1cc(-c2nc(-n3cncn3)c3c(C)c(C#N)sc3n2)cc(OC)c1OC [Example 91, 5-Methyl-4-(1H-1,2,4-triazol-1-yl)-2-(3,4,5-trimethoxyphenyl)thieno[2,3-d]pyrimidine-6-carbonitrile]
5 | 226 to 228 °C | CCC(CC)Nc1nc(-c2cc(OC)c(OC)c(OC)c2)nc2sc(C#N)c(C)c12 [Example 73, 4-[(1-Ethylpropyl)amino]-5-methyl-2-(3,4,5-trimethoxyphenyl)thieno[2,3-d]pyrimidine-6-carbonitrile]
6 | 153 to 155 °C | Cc1c(C#N)sc2nc(CCc3ccccc3)nc(NC3CCC3)c12 [Example 128, 4-(Cyclobutylamino)-5-methyl-2-(2-phenylethyl)thieno[2,3-d]pyrimidine-6-carbonitrile]
7 | 125 to 126 °C | CCNc1nc(Cc2ccc(OC)c(OC)c2)nc2sc(C#N)c(C)c12 [Example 95, 2-(3,4-Dimethoxybenzyl)-4-(ethylamino)-5-methylthieno[2,3-d]pyrimidine-6-carbonitrile]
8 | 176 to 178 °C | COc1ccc(-c2nc(N3CCCC3)c3c(C)c(C#N)sc3n2)cc1 [Example 11, 2-(4-Methoxyphenyl)-5-methyl-4-pyrrolidin-1-ylthieno[2,3-d]pyrimidine-6-carbonitrile]
9 | 238 to 240 °C | COc1cc(-c2nc(-n3ccnc3)c3c(C)c(C#N)sc3n2)cc(OC)c1OC [Example 89, 4-(1H-Imidazol-1-yl)-5-methyl-2-(3,4,5-trimethoxyphenyl)thieno[2,3-d]pyrimidine-6-carbonitrile]

More lines, now with the values behind:

Row | Structure (SMILES) | melting point
10 | COc1ccc(-c2nc(N3CCNCC3)c3c(C)c(C#N)sc3n2)cc1 [Example 12, 2-(4-Methoxyphenyl)-5-methyl-4-piperazin-1-ylthieno[2,3-d]pyrimidine-6-carbonitrile] | 210 to 212 °C
11 | CCN1CCN(c2nc(-c3ccccc3)nc3sc(C#N)c(C)c23)CC1 [Example 1, 4-(4-Ethylpiperazin-1-yl)-5-methyl-2-phenylthieno[2,3-d]pyrimidine-6-carbonitrile] | 178 to 179 °C
12 | COc1ccc(-c2nc(N3CCN(C)CC3)c3c(C)c(C#N)sc3n2)cc1 [Example 9, 2-(4-Methoxyphenyl)-5-methyl-4-(4-methylpiperazin-1-yl)thieno[2,3-d]pyrimidine-6-carbonitrile] | > 250 °C
13 | Cc1c(C#N)sc2nc(CCCc3ccccc3)nc(N3CCN(C)CC3)c12 [Example 130, 5-Methyl-4-(4-methylpiperazin-1-yl)-2-(3-phenylpropyl)thieno[2,3-d]pyrimidine-6-carbonitrile] | 101 to 103 °C
14 | Cc1c(C#N)sc2nc(-c3ccc(Cl)cc3)nc(N3CCOCC3)c12 [Example 23, 2-(4-Chlorophenyl)-5-methyl-4-morpholin-4-ylthieno[2,3-d]pyrimidine-6-carbonitrile] | 205 to 207 °C
15 | Cc1c(C#N)sc2nc(-c3ccccc3)nc(N3CCN(C)CC3)c12 [Example 50, 5-Methyl-4-(4-methyl-piperazin-1-yl)-2-phenyl-thieno[2,3-d-]pyrimidine-6-carbonitrile] | 223 to 225 °C
